# Values of other authors in US20250255801A1, “Novel Parenteral Composition Comprising Linagliptin or its Salts” (Zenvision Pharma LLP, priority 2021, published 2025).
# Key:
# [1] = high solubility and low permeability
# [2] = not given; remark: listed apart in the source
compound,measurement,setting,value
"CC#CCn1c(N2CCC[C@@H](N)C2)nc2c1c(=O)n(Cc1nc(C)c3ccccc3n1)c(=O)n2C [Linagliptin, 1H-Purine-2,6-dione, 8-[(3R)-3-amino-1-piperidinyl]-7-(2-butyn-1-yl)-3,7-dihydro-3-methyl-1-[(4-methyl-2 quinazolinyl)methyl]-]",Solubility in acetone,acetone,ca. 1 mg/mL
same,Solubility in ethanol,ethanol,ca. 10 mg/mL
same,Solubility in isopropanol,isopropanol,< 1000 µg/mL
same,Solubility in methanol,methanol,ca. 60 mg/mL
same,Solubility in water,water,900 µg/mL
same,BCS class,[1],Class III
same,oral systemic bioavailability,[2],approximately 30%
